For this assay, the target named is human recombinant PAK1-KD protein (Homo sapiens, UniProt Q13153). The assay can be described thus: PAK1-KD (Kinase Domain) IC50 Zlyte Assay (FRET peptide substrate phosphorylation). The note with it: Z'-LYTE, Biological Example 1.
Chain of human recombinant PAK1-KD protein (Q13153 270-521 limits assumed): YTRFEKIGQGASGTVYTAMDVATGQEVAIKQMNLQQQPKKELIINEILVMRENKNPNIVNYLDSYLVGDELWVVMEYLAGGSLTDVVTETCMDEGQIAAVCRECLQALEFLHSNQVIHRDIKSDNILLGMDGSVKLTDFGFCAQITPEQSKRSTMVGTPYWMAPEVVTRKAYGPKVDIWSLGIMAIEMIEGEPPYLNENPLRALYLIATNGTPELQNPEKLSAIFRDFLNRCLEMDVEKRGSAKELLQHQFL
Consider `CNc1ncc2cc(-c3ccc(-c4cccc(C)n4)cc3Cl)c(=O)n(CCS(=O)(=O)N3CCNCC3)c2n1` [Example I-141, 6-[2-chloro-4-(6-methyl-2-pyridyl)phenyl]-2-(methylamino)-8-(2-piperazin-1-ylsulfonylethyl)pyrido[2,3-d]pyrimidin-7-one], for which the Ki is 4 nM.

For `CCc1cc(-c2cccc(C)n2)ccc1-c1cc2cnc(NC3COC3)nc2n(C[C@@H]2CNCCO2)c1=O` [Example I-194], the Ki amounted to 26.5 nM.

Regarding `CCNc1ncc2cc(-c3ccc(-c4cncc(C)n4)cc3Cl)c(=O)n(C3CCN(C(=O)CN)C3)c2n1` (stereo not shown) [Example I-28, 8-(1-(2-Aminoacetyl)pyrrolidin-3-yl)-6-(2-chloro-4-(6-methylpyrazin-2-yl)phenyl)-2-(ethylamino)pyrido[2,3-d]pyrimidin-7(8H)-one], the Ki was determined as 25.7 nM.

Turning to `CCNc1ncc2cc(-c3ccc(-c4cncc(C)n4)cc3Cl)c(=O)n(CC[C@H](O)CO)c2n1` [Example I-83, (S)-6-(2-Chloro-4-(6-methylpyrazin-2-yl)phenyl)-8-(3,4-dihydroxybutyl)-2-(ethylamino)pyrido[2,3-d]pyrimidin-7(8H)-one], the Ki worked out at 107 nM.

`CNc1ncc2cc(-c3ccc(-c4cccc(C)n4)cc3Cl)c(=O)n(CCC3CNCCO3)c2n1` (single isomer, unassigned) [Example I-124, 6-(2-Chloro-4-(6-methylpyridin-2-yl)phenyl)-2-(methylamino)-8-(2-(morpholin-2-yl)ethyl)pyrido[2,3-d]pyrimidin-7(8H)-one]: the Ki was 1.5 nM.

Take `CNc1ncc2cc(-c3ccc(-c4cccc(C)n4)cc3C)c(=O)n(CCN3CCOCC3)c2n1` [Example I-165, 2-(Methylamino)-6-[2-methyl-4-(6-methyl-2-pyridyl)phenyl]-8-(2-morpholinoethyl)pyrido[2,3-d]pyrimidin-7-one]: the Ki stood at 16.7 nM.

As for `Cc1cccc(-c2ccc(-c3cc4cnc(NC5COC5)nc4n(CCCCO)c3=O)c(C)c2)n1` [Example I-81, 8-(4-Hydroxybutyl)-6-[2-methyl-4-(6-methyl-2-pyridyl)phenyl]-2-(oxetan-3-ylamino)pyrido[2,3-d]pyrimidin-7-one], the Ki is 6.5 nM.

Turning to `CNc1ncc2cc(-c3ccc(-c4cncc(C)n4)cc3Cl)c(=O)n(CCNCCO)c2n1` [Example I-139, 6-[2-chloro-4-(6-methylpyrazin-2-yl)phenyl]-8-[2-(2-hydroxyethylamino)ethyl]-2-(methylamino)pyrido[2,3-d]pyrimidin-7-one], the Ki worked out at 56 nM.

Regarding `CCc1cc(-c2cccc(C)n2)ccc1-c1cc2cnc(NC3COC3)nc2n(CC[C@H]2OC[C@H](N)CO2)c1=O` [Example I-198, 8-[2-(5-Amino-1,3-dioxan-2-yl)ethyl]-6-[2-ethyl-4-(6-methyl-2-pyridyl)phenyl]-2-(oxetan-3-ylamino)pyrido[2,3-d]pyrimidin-7-one], the Ki turned out to be 1.2 nM.

On to `CNc1ncc2cc(-c3ccc(-c4cccc(C)n4)cc3Cl)c(=O)n(C[C@@H]3CNCCO3)c2n1` [Example I-173, 6-[2-chloro-4-(6-methyl-2-pyridyl)phenyl]-2-(methylamino)-8-[[(2S)-morpholin-2-yl]methyl]pyrido[2,3-d]pyrimidin-7-one], for which the Ki came to 12.9 nM.

Consider `CNc1ncc2cc(-c3ccc(-c4csc(C)n4)cc3Cl)c(=O)n(CCCN)c2n1` [Example I-140, 8-(3-aminopropyl)-6-[2-chloro-4-(2-methylthiazol-4-yl)phenyl]-2-(methylamino)pyrido[2,3-d]pyrimidin-7-one], for which the Ki was found to be 8.06 nM.

Turning to `CNc1ncc2cc(-c3ccc(-c4csc(C5CC5)n4)cc3Cl)c(=O)n(C[C@@H]3CNCCO3)c2n1` [Example I-184, 6-[2-chloro-4-(2-cyclopropylthiazol-4-yl)phenyl]-2-(methylamino)-8-[[(2S)-morpholin-2-yl]methyl]pyrido[2,3-d]pyrimidin-7-one], the Ki worked out at 43.1 nM.

As for `CNc1ncc2cc(-c3ccc(-c4csc(C)n4)cc3Cl)c(=O)n(C[C@H]3CNCCO3)c2n1` [Example I-182, 6-[2-chloro-4-(2-methylthiazol-4-yl)phenyl]-2-(methylamino)-8-[[(2R)-morpholin-2-yl]methyl]pyrido[2,3-d]pyrimidin-7-one], the Ki turned out to be 44.7 nM.

Turning to `CNc1ncc2cc(-c3ccc(-c4cncc(C)n4)cc3Cl)c(=O)n(CCC3CCNC3=O)c2n1` (single isomer, unassigned) [Example I-103, 6-[2-Chloro-4-(6-methylpyrazin-2-yl)phenyl]-2-(methylamino)-8-[2-(2-oxopyrrolidin-3-yl)ethyl]pyrido[2,3-d]pyrimidin-7-one], the Ki came to 19 nM.

For the compound `CNc1ncc2cc(-c3ccc(-c4cncc(C)n4)cc3Cl)c(=O)n(CC[C@H]3OC[C@@H](N)CO3)c2n1` [Example I-172, 8-[2-(5-amino-1,3-dioxan-2-yl)ethyl]-6-[2-chloro-4-(6-methylpyrazin-2-yl)phenyl]-2-(methylamino)pyrido[2,3-d]pyrimidin-7-one], the Ki turned out to be 11.9 nM.

Turning to `CCNc1ncc2cc(-c3ccc(-c4cccc(C)n4)cc3C)c(=O)n(CCCCO)c2n1` [Example I-73, 2-(Ethylamino)-8-(4-hydroxybutyl)-6-[2-methyl-4-(6-methyl-2-pyridyl)phenyl]pyrido[2,3-d]pyrimidin-7-one], the Ki was 18.9 nM.

Regarding `CCNc1ncc2cc(-c3ccc(-c4cncc(C)n4)cc3Cl)c(=O)n(CC(C)OC3CNC3)c2n1` (single isomer, unassigned) [Example I-92], the inhibition constant (Ki) was 47.6 nM.

With `CNc1ncc2cc(-c3ccc(-c4cncc(C)n4)cc3Cl)c(=O)n(CC(=O)N3C[C@@H]4C[C@H]3CN4)c2n1` [Example I-155, 6-[2-Chloro-4-(6-methylpyrazin-2-yl)phenyl]-8-[2-[(1S,4S)-2 5-diazabicyclo[2.2.1]heptan-2-yl]-2-oxo-ethyl]-2-(methylamino)pyrido[2,3-d]pyrimidin-7-one], the Ki worked out at 39.2 nM.

Take `Cc1cncc(-c2ccc(-c3cc4cnc(NC5COC5)nc4n(C[C@H]4OC[C@H](N)CO4)c3=O)c(Cl)c2)n1` [Example I-164, 8-[(5-amino-1,3-dioxan-2-yl)methyl]-6-[2-chloro-4-(6-methylpyrazin-2-yl)phenyl]-2-(oxetan-3-ylamino)pyrido[2,3-d]pyrimidin-7-one]: the Ki is 9.9 nM.

As to `CCNc1ncc2cc(-c3ccc(-c4cncc(C)n4)cc3Cl)c(=O)n(C3CCN(C(=O)CN)CC3)c2n1` [Example I-29, 8-(1-(2-Aminoacetyl)piperidin-4-yl)-6-(2-chloro-4-(6-methylpyrazin-2-yl)phenyl)-2-(ethylamino)pyrido[2,3-d]pyrimidin-7(8H)-one], the Ki turned out to be 17.1 nM.

Take `Cc1cccc(-c2ccc(-c3cc4cnc(NC(C)C)nc4n(CC(=O)N4CCNCC4)c3=O)c(C)c2)n1` [Example I-78, 2-(Isopropylamino)-6-(2-methyl-4-(6-methylpyridin-2-yl)phenyl)-8-(2-oxo-2-(piperazin-1-yl)ethyl)pyrido[2,3-d]pyrimidin-7(8H)-one]: the Ki came out at 16 nM.

Consider `Cc1cccc(-c2ccc(-c3cc4cnc(NC5COC5)nc4n(CCC4CNCCO4)c3=O)c(C)c2)n1` (single isomer, unassigned) [Example I-113, 6-(2-Methyl-4-(6-methylpyridin-2-yl)phenyl)-8-(2-(morpholin-2-yl)ethyl)-2-(oxetan-3-ylamino)pyrido[2,3-d]pyrimidin-7(8H)-one], for which the inhibition constant Ki came to 1.7 nM.

In the case of `CNc1ncc2cc(-c3ccc(-c4cccc(C)n4)cc3Cl)c(=O)n(CCC3(C#N)CCNC3)c2n1` (stereo not shown) [Example I-199, 3-[2-[6-[2-chloro-4-(6-methyl-2-pyridyl)phenyl]-2-(methylamino)-7-oxo-pyrido[2,3-d]pyrimidin-8-yl]ethyl]pyrrolidine-3-carbonitrile], the Ki worked out at 2.8 nM.

`CNc1ncc2cc(-c3ccc(-c4cccc(C)n4)cc3Cl)c(=O)n(CC3(C#N)CCNCC3)c2n1` [Example I-169, 4-[[6-[2-chloro-4-(6-methyl-2-pyridyl)phenyl]-2-(methylamino)-7-oxo-pyrido[2,3-d]pyrimidin-8-yl]methyl]piperidine-4-carbonitrile]: the inhibitory constant (Ki) was determined as 12 nM.

Regarding `CCc1cc(-c2cncc(C)n2)ccc1-c1cc2cnc(NC)nc2n(CCOCCN)c1=O` [Example I-129, 8-[2-(2-aminoethoxy)ethyl]-6-[2-ethyl-4-(6-methylpyrazin-2-yl)phenyl]-2-(methylamino)pyrido[2,3-d]pyrimidin-7-one], the Ki worked out at 27.5 nM.

Consider `Cc1cccc(-c2ccc(-c3cc4cnc(NC5COC5)nc4n(C[C@@H]4CNCCO4)c3=O)c(Cl)c2)n1` [Example I-188, 6-[2-chloro-4-(6-methyl-2-pyridyl)phenyl]-8-[[(2S)-morpholin-2-yl]methyl]-2-(oxetan-3-ylamino)pyrido[2,3-d]pyrimidin-7-one], for which the Ki stood at 8.1 nM.

In the case of `Cc1cncc(-c2ccc(-c3cc4cnc(NCC(F)F)nc4n(CCOC4CNC4)c3=O)c(Cl)c2)n1` [Example I-47, 8-[2-(azetidin-3-yloxy)ethyl]-6-[2-chloro-4-(6-methylpyrazin-2-yl)phenyl]-2-(2,2-difluoroethylamino)pyrido[2,3-d]pyrimidin-7-one], the Ki is 25.2 nM.

Turning to `CCNc1ncc2cc(-c3ccc(-c4cncc(C)n4)cc3Cl)c(=O)n(CC3(O)CCNCC3)c2n1` [Example I-54, 6-(2-Chloro-4-(6-methylpyrazin-2-yl)phenyl)-2-(ethylamino)-8-((4-hydroxypiperidin-4-yl)methyl)pyrido[2,3-d]pyrimidin-7(8H)-one], the inhibition constant (Ki) was 107 nM.

These data come from patent US20150031674A1, “SERINE/THREONINE KINASE INHIBITORS” (GENENTECH, INC., priority 2013, published 2015).
